From article PMC12123601, “Light-Induced, Lysine-Targeting Irreversible Covalent Inhibition of the Human Oxygen Sensing Hydroxylase Factor Inhibiting HIF (FIH)” (Journal of the American Chemical Society, 2025) come the findings set out here.

Molecules are shown by their SMILES.

One assay has as its target FIH (Homo sapiens, UniProt Q9NWT6). Nature of the assay: Intact protein mass analysis of FIH treated with compound. The format is binding. Particulars: FIH 5 μM, compound 50 μM. The protocol: 3 (A) Intact protein mass analysis of FIH (5 μM) and FIH (5 μM) treated with NBA-ZG-2291 (50 μM) without irradiation. (B) Crystal structure view of FIH in complex with NBA-ZG-2291 without irradiation. (C) Superimposition of the crystal structure FIH in complex with NBA-ZG-2291 (green) (PDB ID: 9I4H) and that in complex with ZG-2291 (pink) (PDB ID: 8II0 ). (D) Intact protein mass analysis of FIH (5 μM) and FIH (5 μM) treated with NBA-ZG-2291 (50 μM) followed by 30 min of irradiation (365 nm, 16 W). (E) Predicted covalent binding mode of NBA-ZG-2291 with FIH.
Subsequently, we verified the covalent reaction of NBA-ZG-2291 and FIH with irradiation in solution using, intact protein mass analyzes.
3.4 Intact protein mass spectrometry
Purified FIH (5 μM final) was incubated with Lys-1 at 50 μM in 50 mM Tris pH 7.5, 50 μM MnCl2 in a total volume of 100 μL.
All experiments were incubated at 25 ℃ for 1 h, then with or without irradiation at 365 nm for 30 min. […]
The process of customizing non-standard residues (NBA-ZG-2291 modified Lys106) in the amber14sb force field involved the following steps: First, the molecular structure of NBA-ZG-2291 was obtained and its topology was generated. […] The molecular charges were then calculated using the RESP method, and the topology file was updated with these charge values. […]

Assay [1] has as its system EGLN3 expression in FIH knockdown Hep3B cells. In words: qRT-PCR of EGLN3 in FIH knockdown (siFIH) Hep3B cells. The format is cell-based. As for the experimental part:
5 NBA-ZG-2991 sustainably engages with FIH and regulates the expression of FIH-dependent HIF target gene EGLN3 in Hep3B cells. (A) The CETSA assay was carried out with Hep3B cells grown in the presence of NBA-ZG-2291 (50 μM) for 12–48 h after 30 min of light activation (365 nm, 16 W). The intensity of the bands for grayscale analysis was referenced to the starting temperature (37 °C). α-Actinin was the sample loading control. n = 2; mean ± SD. […] (E) Correlation heatmap of the NBA-ZG-2291-treated group and the siFIH group by RNA-sequencing analysis. […] The relative fold change with respect to DMSO treated sample is shown (with normalization to HPRT gene levels). Mean ± SEM; n = 3. (G) TG level of NBA-ZG-2291-treated 3T3-L1-derived adipocytes. Mean ± SEM; n = 3. (H) Representative Oil Red O-stained images of the control, ZG-2291-treated, and NBA-ZG-2291-treated 3T3-L1-derived adipocytes. Scale Bar, 30 μm. P values were analyzed by two-way ANOVA comparing with the vehicle/control group (*, P < 0.05; **, P < 0.01; ***, P < 0.001, ****, P < 0.0001). See Methods (Quantitative PCR Analysis of Gene Expression) for assay details. […]
For orientation: Real-time PCR tracks product formation cycle by cycle.

FIH, sequence (Q9NWT6 whole entry): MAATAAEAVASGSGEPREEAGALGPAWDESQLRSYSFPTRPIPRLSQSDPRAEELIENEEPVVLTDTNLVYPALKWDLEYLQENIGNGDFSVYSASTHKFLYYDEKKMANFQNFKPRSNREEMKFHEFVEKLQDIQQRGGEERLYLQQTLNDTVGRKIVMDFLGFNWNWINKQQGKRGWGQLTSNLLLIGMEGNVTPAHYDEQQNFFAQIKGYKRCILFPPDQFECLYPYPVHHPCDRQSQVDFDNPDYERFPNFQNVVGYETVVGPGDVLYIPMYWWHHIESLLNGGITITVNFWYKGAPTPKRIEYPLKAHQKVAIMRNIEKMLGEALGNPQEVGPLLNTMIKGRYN

For the compound `O=C(O)CNC(=O)c1ncc(-c2cc(-c3ccc(CO)c([N+](=O)[O-])c3)no2)cc1O` [NBA-ZG-2291], the “Covalent adduct with FIH by intact protein MS” value at FIH (30 min light activation (365 nm, 16 W)) is recorded as “a new peak with the anticipated mass shift corresponding to covalent reaction was detected”; at FIH (absence of irradiation), “failed to detect the covalent adducts”. Moreover, in assay [1], the “Effect on EGLN3 expression when FIH was knocked down” value is listed as “no significant effect on EGLN3 expression”.
